Laboratory results taken from ChEMBL document CHEMBL1201862, “PubChem BioAssay data set” (2004).
Calls of active or inactive are those of the source.

What was measured:
[1] = biological target: Sphingosine 1-phosphate receptor 3 (Homo sapiens, UniProt Q99500); test: Dose response cell-based high throughput screening assay for antagonists of the Sphingosine 1-Phosphate Receptor 3 (S1P3). [Related pubchem assays: 1429, 485 ]; type: functional
[2] = biological target: 5-hydroxytryptamine receptor 1E (Homo sapiens, UniProt P28566); test: Counterscreen assay for S1P3 antagonists: Dose response cell-based high throughput screening assay to identify antagonists of the 5-Hydroxytryptamine Receptor Subtype 1E (5HT1E). [Related pubchem assays: 1429, 485 ]; type: functional
5-hydroxytryptamine receptor 1E, sequence (P28566 whole entry): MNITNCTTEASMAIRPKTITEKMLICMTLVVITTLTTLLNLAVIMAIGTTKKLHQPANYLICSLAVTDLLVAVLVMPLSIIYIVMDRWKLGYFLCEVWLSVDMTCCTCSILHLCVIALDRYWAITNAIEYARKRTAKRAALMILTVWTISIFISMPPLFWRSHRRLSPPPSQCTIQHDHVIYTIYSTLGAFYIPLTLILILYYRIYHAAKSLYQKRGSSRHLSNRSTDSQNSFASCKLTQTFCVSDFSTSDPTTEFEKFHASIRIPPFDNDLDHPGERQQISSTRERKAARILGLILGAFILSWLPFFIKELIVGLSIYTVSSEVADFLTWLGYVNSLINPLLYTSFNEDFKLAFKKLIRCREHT

[3] = biological target: T1, Caspase-3 (Homo sapiens, UniProt P42574); type: functional;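 also: Dose-response selectivity test against caspase-3 for candidate inhibitors of sentrin-specific proteases (SENPs)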
T1 sequence (P42574 whole entry): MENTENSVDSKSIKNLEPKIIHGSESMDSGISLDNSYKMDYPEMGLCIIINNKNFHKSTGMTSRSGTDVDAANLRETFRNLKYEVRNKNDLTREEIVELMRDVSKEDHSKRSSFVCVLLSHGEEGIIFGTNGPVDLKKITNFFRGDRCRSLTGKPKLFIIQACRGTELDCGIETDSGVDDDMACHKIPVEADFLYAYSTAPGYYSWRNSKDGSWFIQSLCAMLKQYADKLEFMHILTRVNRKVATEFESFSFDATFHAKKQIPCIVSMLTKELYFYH

[4] = biological target: T2, Bcl-2-like protein 10 (Homo sapiens, UniProt Q9HD36); test: Bcl-B/TR3 peptide binding disruption – biochemical, fluorescence polarization, FITC-TR3 peptide, selectivity assay for Bfl-1 inhibitor project, primary screen (AID 748);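 also: fluorescence polarization from a fluorescein-labelled TR3 peptide binding purified Bcl-B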
T2 sequence (Q9HD36 whole entry): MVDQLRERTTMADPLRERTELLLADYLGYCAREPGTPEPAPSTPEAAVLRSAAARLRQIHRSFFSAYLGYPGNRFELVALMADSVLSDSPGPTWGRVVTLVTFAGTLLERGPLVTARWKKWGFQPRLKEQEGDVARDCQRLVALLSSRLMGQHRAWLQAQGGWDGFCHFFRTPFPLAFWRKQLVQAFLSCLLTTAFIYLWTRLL

[5] = biological target: T3, Sentrin-specific protease 6 (Homo sapiens, UniProt Q9GZR1); type: functional;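 also: Luminescence-based dose-response confirmatory assay of SENP6 inhibition, following up an ultra-high-throughput screen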
T3 sequence (Q9GZR1 whole entry): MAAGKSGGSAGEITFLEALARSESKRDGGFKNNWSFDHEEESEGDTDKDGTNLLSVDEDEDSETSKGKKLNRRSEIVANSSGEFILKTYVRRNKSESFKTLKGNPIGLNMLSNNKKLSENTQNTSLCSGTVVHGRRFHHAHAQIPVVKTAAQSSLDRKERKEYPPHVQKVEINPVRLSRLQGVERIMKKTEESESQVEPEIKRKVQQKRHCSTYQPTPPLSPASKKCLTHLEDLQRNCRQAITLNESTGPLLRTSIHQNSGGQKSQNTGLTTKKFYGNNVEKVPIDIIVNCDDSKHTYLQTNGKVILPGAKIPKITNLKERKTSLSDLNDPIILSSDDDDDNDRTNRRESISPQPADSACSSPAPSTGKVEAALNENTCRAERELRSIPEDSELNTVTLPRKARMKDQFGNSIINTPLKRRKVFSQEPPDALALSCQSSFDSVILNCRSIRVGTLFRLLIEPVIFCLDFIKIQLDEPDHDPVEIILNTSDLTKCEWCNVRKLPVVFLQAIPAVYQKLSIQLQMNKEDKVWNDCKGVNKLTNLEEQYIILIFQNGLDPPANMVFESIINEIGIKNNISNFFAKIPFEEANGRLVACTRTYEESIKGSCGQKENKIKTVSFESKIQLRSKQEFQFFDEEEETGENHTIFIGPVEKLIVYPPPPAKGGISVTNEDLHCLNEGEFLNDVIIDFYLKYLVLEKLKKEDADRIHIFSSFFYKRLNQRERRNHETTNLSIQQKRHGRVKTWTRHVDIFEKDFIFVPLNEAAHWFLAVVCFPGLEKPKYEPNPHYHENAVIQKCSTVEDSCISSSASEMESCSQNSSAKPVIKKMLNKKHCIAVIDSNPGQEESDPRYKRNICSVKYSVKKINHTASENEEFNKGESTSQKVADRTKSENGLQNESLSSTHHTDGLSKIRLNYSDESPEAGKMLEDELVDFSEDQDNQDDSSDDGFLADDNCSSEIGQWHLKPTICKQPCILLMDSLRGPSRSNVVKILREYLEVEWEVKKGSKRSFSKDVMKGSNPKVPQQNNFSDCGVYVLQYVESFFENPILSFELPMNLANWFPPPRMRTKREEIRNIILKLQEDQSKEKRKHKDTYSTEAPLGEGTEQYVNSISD

[6] = biological target: T4, Sentrin-specific protease 8 (Homo sapiens, UniProt Q96LD8); type: functional;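 also: luminescence read-out of SENP8 inhibition, dose-response confirmation following an ultra-high-throughput screen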
T4 sequence (Q96LD8 whole entry): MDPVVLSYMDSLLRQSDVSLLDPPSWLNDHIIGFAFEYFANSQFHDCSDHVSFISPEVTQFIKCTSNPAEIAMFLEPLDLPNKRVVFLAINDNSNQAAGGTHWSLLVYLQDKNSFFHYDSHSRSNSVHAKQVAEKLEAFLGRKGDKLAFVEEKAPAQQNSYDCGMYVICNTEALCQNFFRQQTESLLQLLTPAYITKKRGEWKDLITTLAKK

[7] = biological target: Genome polyprotein (dengue virus type 2, UniProt P29990); test: flavivirus cap methylation enzyme inhibition – biochemical, confirmation dose response, primary screen (AID 588689); type: functional
Genome polyprotein, sequence (P29990 2492-3391 limits assumed): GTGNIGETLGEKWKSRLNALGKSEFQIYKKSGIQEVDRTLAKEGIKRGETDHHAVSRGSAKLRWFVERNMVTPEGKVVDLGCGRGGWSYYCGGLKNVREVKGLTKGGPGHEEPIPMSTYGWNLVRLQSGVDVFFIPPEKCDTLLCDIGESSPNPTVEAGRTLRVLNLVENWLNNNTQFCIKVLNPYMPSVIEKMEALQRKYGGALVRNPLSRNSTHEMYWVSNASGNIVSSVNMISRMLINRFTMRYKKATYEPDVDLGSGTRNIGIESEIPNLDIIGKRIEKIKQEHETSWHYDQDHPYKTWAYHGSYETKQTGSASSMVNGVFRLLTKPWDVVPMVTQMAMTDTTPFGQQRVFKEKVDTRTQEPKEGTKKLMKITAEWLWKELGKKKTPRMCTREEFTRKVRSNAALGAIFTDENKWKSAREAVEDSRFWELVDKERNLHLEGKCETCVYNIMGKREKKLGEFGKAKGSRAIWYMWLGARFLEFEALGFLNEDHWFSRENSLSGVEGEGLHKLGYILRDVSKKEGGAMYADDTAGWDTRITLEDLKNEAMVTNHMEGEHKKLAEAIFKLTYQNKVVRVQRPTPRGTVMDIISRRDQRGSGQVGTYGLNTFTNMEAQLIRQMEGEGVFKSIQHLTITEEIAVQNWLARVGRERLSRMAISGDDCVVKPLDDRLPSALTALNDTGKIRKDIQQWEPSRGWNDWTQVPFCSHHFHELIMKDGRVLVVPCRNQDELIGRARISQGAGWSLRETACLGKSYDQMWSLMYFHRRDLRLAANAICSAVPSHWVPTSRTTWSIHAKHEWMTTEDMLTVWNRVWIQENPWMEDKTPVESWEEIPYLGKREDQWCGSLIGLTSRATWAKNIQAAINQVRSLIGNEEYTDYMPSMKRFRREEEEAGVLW

[8] = biological target: Glutathione-S-transferase (Schistosoma japonicum, UniProt Q26513); test: GST-antibody interaction or FRET quenching – biochemical, TR-FRET, artefact control for Vif-APOBEC3G degradation inhibitor project, dose response (AID 1117362); type: functional
Glutathione-S-transferase, sequence (Q26513 whole entry): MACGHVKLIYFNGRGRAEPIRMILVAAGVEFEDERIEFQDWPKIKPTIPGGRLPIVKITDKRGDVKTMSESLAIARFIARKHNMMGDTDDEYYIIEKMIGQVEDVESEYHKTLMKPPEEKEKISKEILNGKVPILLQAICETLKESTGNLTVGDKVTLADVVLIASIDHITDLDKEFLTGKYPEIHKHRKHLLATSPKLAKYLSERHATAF

[9] = biological target: T5, Estrogen receptor beta (Homo sapiens, UniProt Q92731);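 also: recombinant ER-beta bound to coactivator SRC1 peptide in presence of estradiol agonist; inhibitors block coactivator peptide binding and lower the FRET signal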
T5 sequence (Q92731 whole entry): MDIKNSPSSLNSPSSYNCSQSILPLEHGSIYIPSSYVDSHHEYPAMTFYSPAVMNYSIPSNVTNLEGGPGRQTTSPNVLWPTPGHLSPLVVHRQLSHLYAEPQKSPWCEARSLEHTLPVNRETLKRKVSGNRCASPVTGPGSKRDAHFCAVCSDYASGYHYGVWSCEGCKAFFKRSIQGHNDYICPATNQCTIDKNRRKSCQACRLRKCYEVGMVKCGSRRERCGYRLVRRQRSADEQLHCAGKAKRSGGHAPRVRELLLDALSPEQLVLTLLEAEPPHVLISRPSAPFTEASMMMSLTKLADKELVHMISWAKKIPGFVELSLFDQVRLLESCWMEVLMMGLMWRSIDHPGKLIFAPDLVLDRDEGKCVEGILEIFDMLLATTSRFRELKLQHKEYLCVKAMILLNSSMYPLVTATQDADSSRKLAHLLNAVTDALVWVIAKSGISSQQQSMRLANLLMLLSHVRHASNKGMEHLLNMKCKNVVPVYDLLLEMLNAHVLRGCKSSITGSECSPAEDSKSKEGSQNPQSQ

[10] = tested on: Vero; test: viability of Vero cells under compound – cytotoxicity control for flavivirus capping enzyme inhibitors (AID 588742); type: functional; settings: Chlorocebus sabaeus
[11] = viability loss in THP-1 monocytes – THP-1 cells, cytotoxicity control for Vif-APOBEC3G degradation inhibitor project, dose response (AID 1117359); type: functional; settings: THP-1
[12] = biological target: T5, Estrogen receptor beta; test: blockers of SRC-3 recruitment to ERβ – biochemical, ELISA, streptavidin-HRP readout, orthogonal assay, confirmation (AID 1060)
[13] = biological target: T6, Sentrin-specific protease 7 (Homo sapiens, UniProt Q9BQF6); type: functional;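 also: Luminescence-based dose-response confirmation of ultra-high-throughput screening hits, measuring inhibition of SENP7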
T6 sequence (Q9BQF6 whole entry): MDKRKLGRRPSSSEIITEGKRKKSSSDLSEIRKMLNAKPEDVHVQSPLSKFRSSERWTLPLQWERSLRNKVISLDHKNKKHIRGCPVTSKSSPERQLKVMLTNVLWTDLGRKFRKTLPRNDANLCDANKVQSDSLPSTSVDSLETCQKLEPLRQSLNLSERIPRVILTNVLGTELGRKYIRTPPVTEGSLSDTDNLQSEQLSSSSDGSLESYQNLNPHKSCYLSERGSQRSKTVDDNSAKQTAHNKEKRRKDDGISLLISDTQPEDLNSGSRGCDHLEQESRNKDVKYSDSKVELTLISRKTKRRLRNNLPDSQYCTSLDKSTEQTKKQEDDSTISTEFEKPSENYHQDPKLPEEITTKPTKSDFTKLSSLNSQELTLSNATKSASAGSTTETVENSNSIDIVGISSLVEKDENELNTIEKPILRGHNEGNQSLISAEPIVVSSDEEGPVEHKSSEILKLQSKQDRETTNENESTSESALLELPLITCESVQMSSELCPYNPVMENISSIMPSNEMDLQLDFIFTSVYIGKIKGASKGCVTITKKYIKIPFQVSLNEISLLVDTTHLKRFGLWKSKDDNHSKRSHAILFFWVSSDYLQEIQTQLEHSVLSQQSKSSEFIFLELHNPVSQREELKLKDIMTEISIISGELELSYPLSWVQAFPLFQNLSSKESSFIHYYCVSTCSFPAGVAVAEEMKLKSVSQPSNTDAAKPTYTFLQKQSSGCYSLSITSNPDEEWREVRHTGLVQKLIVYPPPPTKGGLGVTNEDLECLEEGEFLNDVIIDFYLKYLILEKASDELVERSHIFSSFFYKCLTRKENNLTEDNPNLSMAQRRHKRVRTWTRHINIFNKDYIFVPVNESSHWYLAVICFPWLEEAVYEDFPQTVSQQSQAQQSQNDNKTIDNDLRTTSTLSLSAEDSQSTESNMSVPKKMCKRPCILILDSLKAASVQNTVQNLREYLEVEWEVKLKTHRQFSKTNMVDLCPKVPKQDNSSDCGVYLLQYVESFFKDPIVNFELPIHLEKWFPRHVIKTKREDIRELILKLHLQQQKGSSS

[14] = biological target: Sphingosine 1-phosphate receptor 4 (Homo sapiens, UniProt O95977); test: Fluorescence dose response cell-based high throughput screening assay for antagonists of the Sphingosine 1-Phosphate Receptor 4 (S1P4). [Related pubchem assays: 1524 (Confirmation in triplicates.), 1510 (Primary screen.)]; type: functional
Sphingosine 1-phosphate receptor 4, sequence (O95977 whole entry): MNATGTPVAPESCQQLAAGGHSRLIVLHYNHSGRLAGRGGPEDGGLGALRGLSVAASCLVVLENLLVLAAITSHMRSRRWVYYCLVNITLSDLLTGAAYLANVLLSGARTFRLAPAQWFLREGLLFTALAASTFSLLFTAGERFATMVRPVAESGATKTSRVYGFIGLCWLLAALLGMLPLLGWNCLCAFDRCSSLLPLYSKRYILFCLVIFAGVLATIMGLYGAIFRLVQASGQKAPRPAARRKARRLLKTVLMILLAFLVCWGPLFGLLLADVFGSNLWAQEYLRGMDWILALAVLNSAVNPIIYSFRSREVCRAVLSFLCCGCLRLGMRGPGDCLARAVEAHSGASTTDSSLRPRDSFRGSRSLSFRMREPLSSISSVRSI

[15] = NIH3T3 cell viability loss – ATP luminescence, mouse fibroblasts, counter-screen, dose response (AID 2010); type: functional, cell-based;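 also: cells exposed to compound for about 90 hours before reading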
[16] = viability loss of HPDE-C7K cells – cell-based, fluorescence, HTS, primary screen (AID 431); type: functional; settings: Homo sapiens
[17] = HPDE-C7 pancreatic duct cell viability loss – fluorescence, HTS (AID 430); type: functional, cell-based; settings: Homo sapiens
[18] = Trypanosoma cruzi growth suppression in host cells – NIH3T3 host cells, beta-gal luminescence, confirmation (AID 2044); type: functional, cell-based;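 also: intracellular parasites grown in NIH/3T3 mouse fibroblasts as host cells; luminescent beta-galactosidase reporter signal from transgenic T. cruzi replicating inside host cells; inhibitors lower the luminescence signal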
[19] = biological target: Sphingosine 1-phosphate receptor 1 (Homo sapiens, UniProt P21453); type: functional;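 also: Tango beta-arrestin reporter U2OS cells stimulated with S1P near its EC80; inhibitor potency meaning antagonism of receptor activation by the natural agonist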
Sphingosine 1-phosphate receptor 1, sequence (P21453 whole entry): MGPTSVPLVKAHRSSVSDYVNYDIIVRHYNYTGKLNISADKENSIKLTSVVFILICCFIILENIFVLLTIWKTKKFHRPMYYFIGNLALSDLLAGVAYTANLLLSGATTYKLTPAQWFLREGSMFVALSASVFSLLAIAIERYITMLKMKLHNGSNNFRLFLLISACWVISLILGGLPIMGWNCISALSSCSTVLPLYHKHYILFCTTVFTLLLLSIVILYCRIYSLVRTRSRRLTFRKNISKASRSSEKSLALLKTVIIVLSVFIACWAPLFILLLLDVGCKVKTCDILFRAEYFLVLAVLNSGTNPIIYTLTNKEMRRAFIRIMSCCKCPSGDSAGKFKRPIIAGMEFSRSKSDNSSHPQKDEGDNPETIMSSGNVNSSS

[20] = NIH-3T3 fibroblast cytotoxicity, dose response, cytotoxicity control, cell-based, fluorescence, Alamar Blue, secondary assay (AID 2327); type: functional;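 also: NIH-3T3 mouse fibroblasts cultured with fluconazole at 8 µg/mL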
[21] = fluconazole-exposed Candida albicans growth modulators – fluorescence, retest, confirmation (AID 2467); type: functional, cell-based
[22] = antiviral protection against BTV-induced cell death – arbovirus, BSR cells, confirmation (AID 1250); type: functional;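 also: protection from viral cytopathic effect measured as cell viability by ATP luminescence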
[23] = biological target: Sphingosine 1-phosphate receptor 2 (Homo sapiens, UniProt O95136); test: Dose Response Cell Based Assay for Agonists of the S1P2 Receptor of Purchased Analogues. [Related pubchem assays: 729, 843, 854, 736 ]; type: functional
Sphingosine 1-phosphate receptor 2, sequence (O95136 whole entry): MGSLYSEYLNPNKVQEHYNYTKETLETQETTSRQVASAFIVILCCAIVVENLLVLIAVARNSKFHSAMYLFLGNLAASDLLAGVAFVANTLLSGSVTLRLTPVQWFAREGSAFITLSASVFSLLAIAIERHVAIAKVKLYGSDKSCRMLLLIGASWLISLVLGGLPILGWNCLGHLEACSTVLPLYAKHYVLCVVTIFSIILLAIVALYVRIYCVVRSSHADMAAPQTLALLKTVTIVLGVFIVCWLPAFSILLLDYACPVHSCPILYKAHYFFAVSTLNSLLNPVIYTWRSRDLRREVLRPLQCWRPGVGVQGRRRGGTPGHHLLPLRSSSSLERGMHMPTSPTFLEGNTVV

[24] = biological target: Neuropeptide Y receptor type 1 (Homo sapiens, UniProt P25929); type: functional;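 also: HEK293 cells with a CNG channel challenged with NPY then isoproterenol; potency as antagonist that reverses NPY suppression of cAMP signal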
Neuropeptide Y receptor type 1, sequence (P25929 whole entry): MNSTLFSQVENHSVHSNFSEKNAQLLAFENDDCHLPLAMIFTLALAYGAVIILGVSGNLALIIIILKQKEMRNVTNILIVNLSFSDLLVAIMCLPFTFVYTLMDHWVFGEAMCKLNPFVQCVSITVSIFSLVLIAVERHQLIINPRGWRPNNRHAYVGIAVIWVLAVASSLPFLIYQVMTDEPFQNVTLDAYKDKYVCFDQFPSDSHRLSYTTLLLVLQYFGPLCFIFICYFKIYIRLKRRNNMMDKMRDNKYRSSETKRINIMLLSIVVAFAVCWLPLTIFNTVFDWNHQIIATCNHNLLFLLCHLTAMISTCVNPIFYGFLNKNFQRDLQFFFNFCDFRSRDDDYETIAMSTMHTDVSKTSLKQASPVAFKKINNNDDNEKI

[25] = biological target: Neuropeptide Y receptor type 2 (Homo sapiens, UniProt P49146); type: functional, cell-based;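 also: HEK293 cells expressing the receptor and a CNG channel; stimulus was NPY near EC95 followed by isoproterenol to raise cAMP; antagonist potency measured as restoring cAMP signal that NPY suppresses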
Neuropeptide Y receptor type 2, sequence (P49146 whole entry, the tested form may be a part): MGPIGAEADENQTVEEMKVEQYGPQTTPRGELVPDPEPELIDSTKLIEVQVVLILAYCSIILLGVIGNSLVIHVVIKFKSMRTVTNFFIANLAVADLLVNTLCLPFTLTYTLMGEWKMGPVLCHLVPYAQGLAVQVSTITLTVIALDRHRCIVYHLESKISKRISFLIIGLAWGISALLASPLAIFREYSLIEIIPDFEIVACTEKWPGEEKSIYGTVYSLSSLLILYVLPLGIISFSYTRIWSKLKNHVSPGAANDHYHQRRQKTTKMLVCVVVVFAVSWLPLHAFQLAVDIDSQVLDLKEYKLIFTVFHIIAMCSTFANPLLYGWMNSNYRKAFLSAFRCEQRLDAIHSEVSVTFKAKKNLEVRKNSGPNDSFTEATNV

[26] = biological target: T7, Estrogen receptor (Homo sapiens, UniProt P03372); test: ERα coactivator recruitment enhancers – biochemical, TR-FRET, ERα LBD, dose response (AID 737)
T7 sequence (P03372 whole entry): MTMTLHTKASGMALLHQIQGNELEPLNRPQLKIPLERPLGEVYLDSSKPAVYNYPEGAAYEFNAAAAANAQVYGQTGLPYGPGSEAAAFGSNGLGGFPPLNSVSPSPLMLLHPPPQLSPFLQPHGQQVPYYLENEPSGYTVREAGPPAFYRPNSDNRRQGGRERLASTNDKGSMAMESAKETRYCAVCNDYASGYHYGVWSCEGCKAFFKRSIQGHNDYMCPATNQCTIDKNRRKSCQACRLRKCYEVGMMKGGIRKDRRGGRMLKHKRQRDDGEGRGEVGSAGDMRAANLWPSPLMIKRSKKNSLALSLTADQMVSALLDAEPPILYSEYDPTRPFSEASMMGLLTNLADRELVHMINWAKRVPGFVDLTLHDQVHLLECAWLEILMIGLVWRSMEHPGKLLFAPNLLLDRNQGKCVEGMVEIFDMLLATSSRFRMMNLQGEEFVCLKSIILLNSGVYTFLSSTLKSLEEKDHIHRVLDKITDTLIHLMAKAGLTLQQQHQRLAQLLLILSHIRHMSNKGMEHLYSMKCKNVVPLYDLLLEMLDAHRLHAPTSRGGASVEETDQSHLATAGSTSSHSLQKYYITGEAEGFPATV

Sphingosine 1-phosphate receptor 3, sequence (Q99500 whole entry): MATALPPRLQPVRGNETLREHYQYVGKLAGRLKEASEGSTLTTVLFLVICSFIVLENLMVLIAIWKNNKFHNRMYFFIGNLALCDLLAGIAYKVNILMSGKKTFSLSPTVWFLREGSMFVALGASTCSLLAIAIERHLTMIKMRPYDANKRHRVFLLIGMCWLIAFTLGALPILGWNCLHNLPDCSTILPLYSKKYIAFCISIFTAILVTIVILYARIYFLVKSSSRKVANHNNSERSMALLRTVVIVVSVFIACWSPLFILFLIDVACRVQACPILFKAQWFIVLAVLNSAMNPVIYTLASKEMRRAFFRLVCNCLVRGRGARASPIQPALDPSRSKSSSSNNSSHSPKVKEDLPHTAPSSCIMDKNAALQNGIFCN

CCCn1nc2ccccc2c1P(=O)(N1CCOCC1)N1CCOCC1
IC50 [1]: > 50 µM (not active)
IC50 [2]: > 50 µM (not active)

Cc1ccc2c(c1)c(=O)c1c3n2CCN(C(=O)CCl)C3CC1 (configuration not stated)
IC50 [3]: 14 µM (active)
IC50 [4]: 11.4 µM (active)
IC50 [5]: 8.69 µM (active)
IC50 [6]: 14.2 µM (active)
IC50 [7]: > 100 µM (active)
IC50 [8]: > 100 µM (active)
IC50 [9]: 8.75 µM (active)
CC50 [10]: 13.1 µM (active)
CC50 [11]: 10.9 µM (active)
IC50 [12]: 0.348 µM (not active)
IC50 [13]: 23.9 µM (active)

CS(=O)(=O)c1nc(-c2cccs2)cc(C(F)(F)F)n1
IC50 [14]: 0.989 µM (active)
EC50 [15]: 3.19 µM (active)
EC50 [16]: 2.73 µM (active)
EC50 [17]: 2.66 µM (active)
EC50 [18]: 2.57 µM (active)
IC50 [19]: 22.9 µM (not active)
EC50 [20]: 4.62 µM (inconclusive)
EC50 [21]: > 38 µM (not active)

C=CCN(CC=C)C(=S)NC(=O)Cc1cccc2ccccc12
IC50 [22]: 31.6 µM (active)

Cc1noc(C)c1C(=O)OCC(=O)c1cc(C)n(Cc2ccccc2)c1C
EC50 [23]: > 30 µM (not active)

O=C(CN(Cc1ccc2c(c1)OCO2)C(=O)CSc1nc2ccccc2o1)NC1CCCCC1
IC50 [24]: 8.58 µM (active)
IC50 [25]: 13.7 µM (not active)

Cc1ccc(-c2nnc(S)n2/N=C/C=C/c2ccccc2[N+](=O)[O-])cc1
IC50 [4]: > 100 µM (inactive)
EC50 [26]: 6.52 µM (active)
